Experimental data as given in ChEMBL document CHEMBL5465560, “Selectivity Literature for EUbOPEN Chemogenomic Library” (2024).

Key:
[1] = target: Dual specificity mitogen-activated protein kinase kinase 2 (Homo sapiens) (UniProt P36507); conditions: at 10 µM
[2] = target: RAC-alpha serine/threonine-protein kinase (Homo sapiens, UniProt P31749); experiment: Selectivity interaction (Kinase panel (33PanQinase(R) Activity Assay)) EUB0000877a AKT1
[3] = target: T1, Serine/threonine-protein kinase 36 (Homo sapiens) (UniProt Q9NRP7); experiment: Selectivity interaction (KinomeScan (DiscoverX)) EUB0000607a STK36; conditions: at 10 µM
T1 sequence (whole entry): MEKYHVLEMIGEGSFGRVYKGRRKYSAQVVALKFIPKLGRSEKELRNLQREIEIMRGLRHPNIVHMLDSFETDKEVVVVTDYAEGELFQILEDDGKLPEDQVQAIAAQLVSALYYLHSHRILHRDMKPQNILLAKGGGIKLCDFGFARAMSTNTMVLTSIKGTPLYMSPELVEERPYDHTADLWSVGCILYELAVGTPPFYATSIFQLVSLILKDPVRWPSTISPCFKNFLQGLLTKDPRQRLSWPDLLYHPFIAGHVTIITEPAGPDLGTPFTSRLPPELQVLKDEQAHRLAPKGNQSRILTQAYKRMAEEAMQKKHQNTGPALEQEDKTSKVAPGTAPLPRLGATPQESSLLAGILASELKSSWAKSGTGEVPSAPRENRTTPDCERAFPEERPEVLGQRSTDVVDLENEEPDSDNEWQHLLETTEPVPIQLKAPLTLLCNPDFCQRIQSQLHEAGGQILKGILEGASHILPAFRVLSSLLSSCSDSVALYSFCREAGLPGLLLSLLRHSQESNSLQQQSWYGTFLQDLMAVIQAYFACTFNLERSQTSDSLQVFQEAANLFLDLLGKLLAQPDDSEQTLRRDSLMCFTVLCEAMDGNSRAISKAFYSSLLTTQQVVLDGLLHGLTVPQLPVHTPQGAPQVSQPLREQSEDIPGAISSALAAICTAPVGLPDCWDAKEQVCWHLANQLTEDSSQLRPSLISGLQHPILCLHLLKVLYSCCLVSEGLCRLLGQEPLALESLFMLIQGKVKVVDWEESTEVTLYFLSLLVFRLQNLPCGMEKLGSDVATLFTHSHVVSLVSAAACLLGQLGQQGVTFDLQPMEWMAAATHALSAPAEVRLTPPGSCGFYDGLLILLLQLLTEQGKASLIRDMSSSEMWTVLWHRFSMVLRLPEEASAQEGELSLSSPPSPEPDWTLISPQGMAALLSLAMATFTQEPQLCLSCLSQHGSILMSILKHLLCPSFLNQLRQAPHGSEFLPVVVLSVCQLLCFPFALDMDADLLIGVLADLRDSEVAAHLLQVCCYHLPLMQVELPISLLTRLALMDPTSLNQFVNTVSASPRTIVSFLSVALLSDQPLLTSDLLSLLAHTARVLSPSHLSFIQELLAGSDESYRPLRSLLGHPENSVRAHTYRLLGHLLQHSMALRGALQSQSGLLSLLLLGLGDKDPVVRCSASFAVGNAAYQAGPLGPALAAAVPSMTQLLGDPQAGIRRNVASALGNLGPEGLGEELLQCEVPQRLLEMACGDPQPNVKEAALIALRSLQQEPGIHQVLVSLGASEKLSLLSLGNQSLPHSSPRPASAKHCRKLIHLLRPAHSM

[4] = test system: Phosphatidylinositol 4,5-bisphosphate 3-kinase catalytic subunit alpha isoform (Homo sapiens), P42336 [E542K]; experiment: (§1) Selectivity interaction (KinomeScan (DiscoverX)) EUB0000618a PIK3CA; conditions: at 10 µM
Phosphatidylinositol 4,5-bisphosphate 3-kinase catalytic subunit alpha isoform (Homo sapiens), P42336 [E542K], sequence (P42336 whole entry E542K, canonical isoform): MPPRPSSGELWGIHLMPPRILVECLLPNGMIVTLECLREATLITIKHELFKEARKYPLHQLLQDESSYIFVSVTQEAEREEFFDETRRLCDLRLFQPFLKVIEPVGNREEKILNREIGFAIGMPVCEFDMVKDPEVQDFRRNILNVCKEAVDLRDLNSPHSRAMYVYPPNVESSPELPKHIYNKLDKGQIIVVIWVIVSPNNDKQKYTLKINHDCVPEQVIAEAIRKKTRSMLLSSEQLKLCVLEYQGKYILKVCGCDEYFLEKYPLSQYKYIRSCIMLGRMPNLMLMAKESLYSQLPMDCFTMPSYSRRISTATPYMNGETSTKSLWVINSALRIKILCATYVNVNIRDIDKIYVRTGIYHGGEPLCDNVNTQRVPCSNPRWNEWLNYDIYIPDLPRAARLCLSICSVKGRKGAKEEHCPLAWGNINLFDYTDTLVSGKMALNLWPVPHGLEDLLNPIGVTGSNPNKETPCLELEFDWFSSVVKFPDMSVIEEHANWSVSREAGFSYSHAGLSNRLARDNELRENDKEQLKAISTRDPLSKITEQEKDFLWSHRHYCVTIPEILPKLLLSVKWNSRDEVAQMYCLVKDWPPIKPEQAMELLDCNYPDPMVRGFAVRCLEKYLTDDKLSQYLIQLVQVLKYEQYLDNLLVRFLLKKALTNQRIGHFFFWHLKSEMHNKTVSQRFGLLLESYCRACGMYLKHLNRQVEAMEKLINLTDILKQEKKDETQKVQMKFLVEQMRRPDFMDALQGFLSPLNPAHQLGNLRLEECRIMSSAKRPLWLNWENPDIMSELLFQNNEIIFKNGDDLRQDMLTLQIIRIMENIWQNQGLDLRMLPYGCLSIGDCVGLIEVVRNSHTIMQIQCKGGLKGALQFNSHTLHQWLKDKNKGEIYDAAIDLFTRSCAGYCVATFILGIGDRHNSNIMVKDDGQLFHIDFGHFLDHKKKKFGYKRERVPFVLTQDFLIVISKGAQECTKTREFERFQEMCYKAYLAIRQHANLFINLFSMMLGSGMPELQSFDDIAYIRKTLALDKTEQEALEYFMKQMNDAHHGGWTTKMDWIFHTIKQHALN

[5] = test system: Phosphatidylinositol 4,5-bisphosphate 3-kinase catalytic subunit alpha isoform (Homo sapiens), P42336 [H1047L]; experiment: as §1; conditions: at 10 µM
Phosphatidylinositol 4,5-bisphosphate 3-kinase catalytic subunit alpha isoform (Homo sapiens), P42336 [H1047L], sequence (P42336 whole entry H1047L, canonical isoform): as the sequence (P42336 whole entry E542K, canonical isoform) above, with K542E, H1047L counted along it

[6] = test system: Phosphatidylinositol 4,5-bisphosphate 3-kinase catalytic subunit alpha isoform (Homo sapiens), P42336 [Q546K]; experiment: as §1; conditions: at 10 µM
Phosphatidylinositol 4,5-bisphosphate 3-kinase catalytic subunit alpha isoform (Homo sapiens), P42336 [Q546K], sequence (P42336 whole entry Q546K, canonical isoform): as the sequence (P42336 whole entry E542K, canonical isoform) above, with K542E, Q546K counted along it

[7] = target: Phosphatidylinositol 4,5-bisphosphate 3-kinase catalytic subunit alpha isoform (Homo sapiens) (UniProt P42336); experiment: as §1; conditions: at 10 µM
Phosphatidylinositol 4,5-bisphosphate 3-kinase catalytic subunit alpha isoform (Homo sapiens), sequence (P42336 whole entry, canonical isoform): as the sequence (P42336 whole entry E542K, canonical isoform) above, with K542E counted along it

[8] = test system: Phosphatidylinositol 4,5-bisphosphate 3-kinase catalytic subunit alpha isoform (Homo sapiens), P42336 [C420R]; experiment: as §1; conditions: at 10 µM
Phosphatidylinositol 4,5-bisphosphate 3-kinase catalytic subunit alpha isoform (Homo sapiens), P42336 [C420R], sequence (P42336 whole entry C420R, canonical isoform): as the sequence (P42336 whole entry E542K, canonical isoform) above, with C420R, K542E counted along it

[9] = test system: Phosphatidylinositol 4,5-bisphosphate 3-kinase catalytic subunit alpha isoform (Homo sapiens), P42336 [M1043I]; experiment: as §1; conditions: at 10 µM
Phosphatidylinositol 4,5-bisphosphate 3-kinase catalytic subunit alpha isoform (Homo sapiens), P42336 [M1043I], sequence (P42336 whole entry M1043I, canonical isoform): as the sequence (P42336 whole entry E542K, canonical isoform) above, with K542E, M1043I counted along it

[10] = test system: Phosphatidylinositol 4,5-bisphosphate 3-kinase catalytic subunit alpha isoform (Homo sapiens), P42336 [H1047Y]; experiment: as §1; conditions: at 10 µM
Phosphatidylinositol 4,5-bisphosphate 3-kinase catalytic subunit alpha isoform (Homo sapiens), P42336 [H1047Y], sequence (P42336 whole entry H1047Y, canonical isoform): as the sequence (P42336 whole entry E542K, canonical isoform) above, with K542E, H1047Y counted along it

[11] = test system: Phosphatidylinositol 4,5-bisphosphate 3-kinase catalytic subunit alpha isoform (Homo sapiens), P42336 [E545K]; experiment: as §1; conditions: at 10 µM
Phosphatidylinositol 4,5-bisphosphate 3-kinase catalytic subunit alpha isoform (Homo sapiens), P42336 [E545K], sequence (P42336 whole entry E545K, canonical isoform): as the sequence (P42336 whole entry E542K, canonical isoform) above, with K542E, E545K counted along it

[12] = test system: Phosphatidylinositol 4,5-bisphosphate 3-kinase catalytic subunit alpha isoform (Homo sapiens), P42336 [E545A]; experiment: as §1; conditions: at 10 µM
Phosphatidylinositol 4,5-bisphosphate 3-kinase catalytic subunit alpha isoform (Homo sapiens), P42336 [E545A], sequence (P42336 whole entry E545A, canonical isoform): as the sequence (P42336 whole entry E542K, canonical isoform) above, with K542E, E545A counted along it

[13] = target: T2, Ephrin type-A receptor 1 (Homo sapiens) (UniProt P21709); experiment: Selectivity interaction (ActivX KiNativ screen (ex vivo kinase selectivity in human PBMCs)) EUB0001619a EPHA1; format: cell-based; conditions: PBMC, at 1 µM
T2 sequence (whole entry): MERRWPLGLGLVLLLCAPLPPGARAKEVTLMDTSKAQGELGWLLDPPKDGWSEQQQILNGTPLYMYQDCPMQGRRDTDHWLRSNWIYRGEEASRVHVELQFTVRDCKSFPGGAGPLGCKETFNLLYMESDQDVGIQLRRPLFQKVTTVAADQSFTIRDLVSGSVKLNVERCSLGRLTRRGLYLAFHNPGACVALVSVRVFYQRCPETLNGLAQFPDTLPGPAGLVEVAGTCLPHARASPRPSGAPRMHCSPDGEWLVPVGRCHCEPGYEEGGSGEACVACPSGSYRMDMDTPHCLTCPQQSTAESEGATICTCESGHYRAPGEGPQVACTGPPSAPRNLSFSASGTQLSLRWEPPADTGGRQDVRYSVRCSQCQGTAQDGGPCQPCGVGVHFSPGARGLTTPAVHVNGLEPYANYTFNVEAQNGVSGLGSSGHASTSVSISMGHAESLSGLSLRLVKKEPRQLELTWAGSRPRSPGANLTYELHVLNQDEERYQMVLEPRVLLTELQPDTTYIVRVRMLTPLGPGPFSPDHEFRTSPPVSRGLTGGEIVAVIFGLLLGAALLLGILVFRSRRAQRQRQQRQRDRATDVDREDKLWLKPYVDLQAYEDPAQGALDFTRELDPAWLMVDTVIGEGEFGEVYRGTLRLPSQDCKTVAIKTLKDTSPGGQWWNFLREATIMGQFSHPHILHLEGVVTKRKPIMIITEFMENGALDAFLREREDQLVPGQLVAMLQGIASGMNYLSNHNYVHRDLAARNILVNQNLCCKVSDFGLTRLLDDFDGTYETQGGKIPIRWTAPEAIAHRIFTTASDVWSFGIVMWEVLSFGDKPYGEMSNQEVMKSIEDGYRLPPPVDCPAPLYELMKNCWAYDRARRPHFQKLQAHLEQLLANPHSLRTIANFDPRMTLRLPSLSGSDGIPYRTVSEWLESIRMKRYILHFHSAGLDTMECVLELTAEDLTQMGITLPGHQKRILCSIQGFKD

RAC-alpha serine/threonine-protein kinase, sequence (P31749 whole entry): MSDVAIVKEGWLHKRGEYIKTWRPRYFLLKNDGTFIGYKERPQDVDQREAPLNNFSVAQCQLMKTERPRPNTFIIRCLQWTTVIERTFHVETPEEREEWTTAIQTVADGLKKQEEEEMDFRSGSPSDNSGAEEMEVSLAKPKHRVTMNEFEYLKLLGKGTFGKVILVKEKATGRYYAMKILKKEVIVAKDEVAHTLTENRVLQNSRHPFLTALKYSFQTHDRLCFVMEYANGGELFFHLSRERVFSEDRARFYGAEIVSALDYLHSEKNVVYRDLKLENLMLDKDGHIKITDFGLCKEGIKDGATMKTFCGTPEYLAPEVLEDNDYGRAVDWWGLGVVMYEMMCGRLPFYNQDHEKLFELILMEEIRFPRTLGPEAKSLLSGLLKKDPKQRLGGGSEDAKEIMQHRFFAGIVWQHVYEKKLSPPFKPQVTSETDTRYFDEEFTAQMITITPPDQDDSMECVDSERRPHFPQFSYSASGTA
Dual specificity mitogen-activated protein kinase kinase 2 (Homo sapiens), sequence (P36507 whole entry): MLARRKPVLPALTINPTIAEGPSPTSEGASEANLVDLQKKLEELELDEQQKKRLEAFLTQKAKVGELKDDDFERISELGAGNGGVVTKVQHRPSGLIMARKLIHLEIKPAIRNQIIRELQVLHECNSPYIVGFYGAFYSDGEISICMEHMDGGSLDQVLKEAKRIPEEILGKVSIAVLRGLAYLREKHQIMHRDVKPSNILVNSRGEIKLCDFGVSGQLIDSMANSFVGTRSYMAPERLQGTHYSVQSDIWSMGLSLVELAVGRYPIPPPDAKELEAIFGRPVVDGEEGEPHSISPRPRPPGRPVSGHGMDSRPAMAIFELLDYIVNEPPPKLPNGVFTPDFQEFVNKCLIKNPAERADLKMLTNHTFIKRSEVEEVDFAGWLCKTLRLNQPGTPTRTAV

CCN(CC)CCCCNc1ncc2cc(-c3cc(OC)cc(OC)c3)c(NC(=O)NC(C)(C)C)nc2n1
% of control [1]: 100%

CCC(=O)N1CC[C@H](Nc2ncnc3c2CN(c2cnc(OC)c(C(F)(F)F)c2)CC3)C1 [LENIOLISIB]
IC50 [2]: > 10 µM

CNC(=O)Nc1ccc(-c2nc(N3CC4CCC(C3)O4)c3cnn(C4CCC5(CC4)OCCO5)c3n2)cc1
% of control [3]: 96%

O[C@H]1CC[C@H](Nc2ncc3nc(Nc4c(F)cc(F)cc4F)n([C@H]4CCOC4)c3n2)CC1
% of control [4]: 100%
% of control [5]: 100%
% of control [6]: 100%
% of control [7]: 100%
% of control [8]: 100%
% of control [9]: 100%
% of control [10]: 100%
% of control [11]: 100%
% of control [12]: 100%

N#Cc1cccc(-c2c[nH]c3ncnc(N4CCOCC4)c23)c1
% of inhibition [13]: -3%
